Test results reported in patent US20250195521A1 (Revolution Medicines, Inc., priority 2020, published 2025).

system: K-Ras G12C (NCI-H358 cells); assay: Potency assay: pERK in NCI-H358 cells; assay type: cell-based, human; settings: Homo sapiens, NCI-H358, 4 h, read-out: pERK EC50 (H358 KRAS G12C)
Procedure: The purpose of this assay is to measure the ability of test compounds to inhibit K-Ras in cells. […] This procedure measures a decrease in cellular pERK in response to test compounds. The procedure described below in NCI-H358 cells is applicable to K-Ras G12C.
Note: This protocol may be executed substituting other cell lines to characterize inhibitors of other RAS variants, including, for example, AsPC-1 (K-Ras G12D), Capan-1 (K-Ras G12V), or NCI-H1355 (K-Ras G13C).
NCI-H358 cells were grown and maintained using media and procedures recommended by the ATCC. On the day prior to compound addition, cells were plated in 384-well cell culture plates (40 μl/well) and grown overnight in a 37° C., 5% CO2 incubator. Test compounds were prepared in 10, 3-fold dilutions in DMSO, with a high concentration of 10 mM. On the day of assay, 40 nL of test compound was added to each well of cell culture plate using an Echo550 liquid handler (LabCyte®). Concentrations of test compound were tested in duplicate. After compound addition, cells were incubated 4 hours at 37° C., 5% CO2. Following incubation, culture medium was removed and cells were washed once with phosphate buffered saline.
In some experiments, cellular pERK level was determined using the AlphaLISA SureFire Ultra p-ERK1/2 Assay Kit (PerkinElmer). Cells were lysed in 25 μL lysis buffer, with shaking at 600 RPM at room temperature. […] After a 2-hour incubation in the dark, 5 μL donor mix was added, plate was sealed, and incubated 2 hours at room temperature. Signal was read on an Envision plate reader (PerkinElmer) using standard AlphaLISA settings. Analysis of raw data was carried out in Excel (Microsoft) and Prism (GraphPad). Signal was plotted vs. the decadal logarithm of compound concentration, and IC50 was determined by fitting a 4-parameter sigmoidal concentration response model.
In other experiments, cellular pERK was determined by In-Cell Western. […] Fixed cells were washed 4 times for 5 minutes with TBS containing 0.1% Triton X-100 (TBST) and then blocked with 100 μL Odyssey blocking buffer (LI-COR) for 60 minutes at room temperature. Primary antibody (PERK, CST-4370, Cell Signaling Technology) was diluted 1:200 in blocking buffer, and 50 μL was added to each well and incubated overnight at 4° C. Cells were washed 4 times for 5 minutes with TBST. Secondary antibody (IR-800CW rabbit, LI-COR, diluted 1:800) and DNA stain DRAQ5 (LI-COR, diluted 1:2000) were added and incubated 1-2 hours at room temperature. Cells were washed 4 times for 5 minutes with TBST. Plates were scanned on a Li—COR Odyssey CLx Imager. Analysis of raw data was carried out in Excel (Microsoft) and Prism (GraphPad). Signal was plotted vs. the decadal logarithm of compound concentration, and IC50 was determined by fitting a 4-parameter sigmoidal concentration response model.

| SMILES | EC50 [µM] |
| --- | --- |
| C=CC(=O)N1CC[C@H](C(=O)N(C)[C@H](C(=O)N[C@H]2Cc3cc(cc(O)c3F)-c3ccc4c(c3)c(c(-c3c(CCOC)cccc3OC)n4CC)CC(C)(C)COC(=O)[C@@H]3CCCN(N3)C2=O)C(C)C)C1 [Compound A9] | < 5 |
| CCn1c(-c2cnccc2COC)c2c3cc(ccc31)-c1cc(O)cc(c1)C[C@H](NC(=O)[C@H](C(C)C)N(C)C(=O)[C@H]1CCN(C(=O)OC)C1)C(=O)N1CCC[C@H](N1)C(=O)OCC(C)(C)C2 [Compound A11, methyl (3S)-3-{[(1S)-1-{[(8S,14S)-22-ethyl-4-hydroxy-21-[4-(methoxymethyl)pyridin-3-yl]-18,18-dimethyl-9,15-dioxo-16-oxa-10,22,28-triazapentacyclo [18.5.2.1^2,6.1^10,14.0^23,27]nonacosa-1 (26),2,4,6 (29),20,23 (27),24-heptaen-8-yl]carbamoyl}-2-methylpropyl](methyl)carbamoyl}pyrrolidine-1-carboxylate] | < 5 |
| C=CC(=O)N1CC[C@H](C(=O)N(C)[C@H](C(=O)N[C@H]2Cc3cc(O)cc(c3)-c3ccc4c(c3)c(c(-c3ncccc3[C@@H](C)OC)n4CC)CC(C)(C)COC(=O)[C@@H]3CCCN(N3)C2=O)C(C)C)C1 [Compound A29] | < 5 |
| C=CC(=O)N1CC[C@H](C(=O)N(C)[C@H](C(=O)N[C@H]2Cc3cc(OC(=O)N(C)CC(=O)O)cc(c3)-c3ccc4c(c3)c(c(-c3ccccc3CCOC)n4CC)CC(C)(C)COC(=O)[C@@H]3CCCN(N3)C2=O)C(C)C)C1 [Compound A78] | < 5 |

same assay, conditions: Homo sapiens; NCI-H358 cells, 4 hours; read-out: pERK EC50 (H358 KRAS G12C)

| SMILES | EC50 [µM] |
| --- | --- |
| CCn1c(-c2cnccc2COC)c2c3cc(ccc31)-c1cc(O)cc(c1)C[C@H](NC(=O)[C@H](C(C)C)N(C)C(=O)[C@H]1CCNC1)C(=O)N1CCC[C@H](N1)C(=O)OCC(C)(C)C2 [Compound A10] | < 5 |
| C=CC(=O)N1CC[C@H](C(=O)N(C)[C@H](C(=O)N[C@H]2Cc3cc(O)cc(c3)-c3ccc4c(c3)c(c(-c3ccccc3CCOC)n4C(C)(C)C#N)CC(C)(C)COC(=O)[C@@H]3CCCN(N3)C2=O)C(C)C)C1 [Compound A12] | < 5 |
| CCn1c(-c2cnccc2COC)c2c3cc(ccc31)-c1cc(O)cc(c1)C[C@H](NC(=O)[C@H](C(C)C)N(C)C(=O)[C@H]1CCN(C)C1)C(=O)N1CCC[C@H](N1)C(=O)OCC(C)(C)C2 [Compound A27, (2S)—N-[(8S,14S)-22-ethyl-4-hydroxy-21-[4-(methoxymethyl)pyridin-3-yl]-18,18-dimethyl-9,15-dioxo-16-oxa-10,22,28-triazapentacyclo [18.5.2.1^2,6.1^10,14.0^23,27]nonacosa-1 (26),2,4,6 (29),20,23 (27),24-heptaen-8-yl]-3-methyl-2-{N-methyl-1-[(3S)-1-methylpyrrolidin-3-yl]formamido}butanamide] | < 5 |
| CCn1c(-c2cccnc2COC)c2c3cc(ccc31)-c1cc(O)cc(c1)C[C@H](NC(=O)[C@H](C(C)C)N(C)C(=O)[C@H]1CCNC1)C(=O)N1CCC[C@H](N1)C(=O)OCC(C)(C)C2 [Compound A32] | < 5 |
| CCn1c(-c2cnccc2COC)c2c3cc(ccc31)-c1cc(O)cc(c1)C[C@H](NC(=O)[C@H](C(C)C)N(C)C(=O)[C@H]1CCN(S(=O)(=O)N3CC(N)C3)C1)C(=O)N1CCC[C@H](N1)C(=O)OCC(C)(C)C2 [Compound A35] | < 5 |
| CCn1c(-c2cnccc2COC)c2c3cc(ccc31)-c1cc(O)cc(c1)C[C@H](NC(=O)[C@H](C(C)C)N(C)C(=O)[C@H]1CCN(S(=O)(=O)N3CC(O)C3)C1)C(=O)N1CCC[C@H](N1)C(=O)OCC(C)(C)C2 [Compound A37, (2S)—N-[(8S,14S)-22-ethyl-4-hydroxy-21-[4-(methoxymethyl)pyridin-3-yl]-18,18-dimethyl-9,15-dioxo-16-oxa-10,22,28-triazapentacyclo [18.5.2.1^2,6.1^10,14.0^23,27]nonacosa-1 (26),2,4,6 (29),20,23 (27),24-heptaen-8-yl]-2-{1-[(3S)-1-[(3-hydroxyazetidin-1-yl)sulfonyl]pyrrolidin-3-yl]-N-methylformamido}-3-methylbutanamide] | < 5 |
| CCn1c(-c2cnccc2COC)c2c3cc(ccc31)-c1cc(O)cc(c1)C[C@H](NC(=O)[C@H](C(C)C)N(C)C(=O)CO)C(=O)N1CCC[C@H](N1)C(=O)OCC(C)(C)C2 [Compound A43, (2S)—N-[(8S,14S)-22-ethyl-4-hydroxy-21-[4-(methoxymethyl)pyridin-3-yl]-18,18-dimethyl-9,15-dioxo-16-oxa-10,22,28-triazapentacyclo [18.5.2.1^2,6.1^10,14.0^23,27]nonacosa-1 (26), 2,4,6 (29),20,23 (27),24-heptaen-8-yl]-2-(2-hydroxy-N-methylacetamido)-3-methylbutanamide] | < 5 |

Next, values leading:

| EC50 [µM] | SMILES |
| --- | --- |
| < 5 | CCn1c(-c2cccnc2[C@H](C)OC)c2c3cc(ccc31)-c1cc(O)cc(c1)C[C@H](NC(=O)[C@H](C(C)C)N(C)C(=O)[C@H]1CCC[C@H]1N)C(=O)N1CCC[C@H](N1)C(=O)OCC(C)(C)C2 (atropisomer, axis not shown) [Compound A131] |
| < 5 | CCn1c(-c2cccnc2[C@H](C)OC)c2c3cc(ccc31)-c1csc(n1)C[C@H](NC(=O)[C@H](C(C)C)N(C)C(=O)N1CC(C(C)(C)OC)C1)C(=O)N1CCC[C@H](N1)C(=O)OCC(C)(C)C2 (atropisomer, axis not shown) [Compound A614] |
| < 5 | CCn1c(-c2cnccc2COC)c2c3cc(ccc31)-c1cc(O)cc(c1)C[C@H](NC(=O)[C@H](C(C)C)N1CCCCC1=O)C(=O)N1CCC[C@H](N1)C(=O)OCC(C)(C)C2 [Compound A44] |
| < 5 | CCn1c(-c2cnccc2COC)c2c3cc(ccc31)-c1cc(O)cc(c1)C[C@H](NC(=O)[C@H](C(C)C)N(C)S(C)(=O)=O)C(=O)N1CCC[C@H](N1)C(=O)OCC(C)(C)C2 [Compound A57, (2S)—N-[(8S,14S)-22-ethyl-4-hydroxy-21-[4-(methoxymethyl)pyridin-3-yl]-18,18-dimethyl-9,15-dioxo-16-oxa-10,22,28-triazapentacyclo [18.5.2.1^2,6.1^10,14.0^23,27]nonacosa-1 (26),2,4,6 (29),20,23 (27),24-heptaen-8-yl]-3-methyl-2-(N-methylmethanesulfonamido) butanamide] |
| < 5 | CCn1c(-c2cccnc2[C@H](C)OC)c2c3cc(ccc31)-c1cccc(c1)C[C@H](NC(=O)[C@H](C(C)C)N(C)C(=O)[C@H]1CCN(C(C)=O)C1)C(=O)N1CCC[C@H](N1)C(=O)OCC(C)(C)C2 [Compound A60] |
| < 5 | CCn1c(-c2cnccc2COC)c2c3cc(ccc31)-c1cc(O)cc(c1)C[C@H](NC(=O)[C@H]([C@@H](C)OC)N(C)C(C)=O)C(=O)N1CCC[C@H](N1)C(=O)OCC(C)(C)C2 [Compound A76] |
| < 5 | CCn1c(-c2cnccc2COC)c2c3cc(ccc31)-c1cc(O)cc(c1)C[C@H](NC(=O)[C@H](C(C)C)N(C)C(=O)[C@@H]1CCOC1)C(=O)N1CCC[C@H](N1)C(=O)OCC(C)(C)C2 [Compound A94] |
| < 5 | CCn1c(-c2cnccc2COC)c2c3cc(ccc31)-c1cc(O)cc(c1)C[C@H](NC(=O)[C@H](C(C)C)N(C)C(=O)OC1CN(C)C1)C(=O)N1CCC[C@H](N1)C(=O)OCC(C)(C)C2 [Compound A101] |
| < 5 | CCn1c(-c2cccnc2[C@H](C)OC)c2c3cc(ccc31)-c1cccc(c1)C[C@H](NC(=O)[C@H](C(C)C)N(C)C(=O)[C@H]1CCN(C(=O)CN)C1)C(=O)N1CCC[C@H](N1)C(=O)OCC(C)(C)C2 [Compound A105] |
| < 5 | CCn1c(-c2cccnc2[C@H](C)OC)c2c3cc(ccc31)-c1csc(n1)C[C@H](NC(=O)[C@H](C(C)C)N(C)C(=O)[C@H]1CCN(C)C1)C(=O)N1CCC[C@H](N1)C(=O)OCC(C)(C)C2 [Compound A108] |
| < 5 | CCn1c(-c2cccnc2[C@H](C)OC)c2c3cc(ccc31)-c1cc(O)cc(c1)C[C@H](NC(=O)[C@H](C(C)C)N(C)C(=O)[C@H]1CCN(CCO)C1)C(=O)N1CCC[C@H](N1)C(=O)OCC(C)(C)C2 [Compound A111] |

same assay, conditions: read-out: pERK EC50 (H358 KRAS G12C); NCI-H358 cells, 4 hours

| SMILES | EC50 [µM] |
| --- | --- |
| C=CC(=O)N1CC[C@H](C(=O)N(C)[C@H](C(=O)N[C@H]2Cc3cc(N)cc(c3)-c3ccc4c(c3)c(c(-c3ccccc3COC)n4CC)CC(C)(C)COC(=O)[C@@H]3CCCN(N3)C2=O)C(C)C)C1 [Compound A42] | < 5 |
